For one experiment, the system named is PAEC. Description: Mitochondrial bioenergetics (XF24 Analyzer, OCR) in PAEC. Conditions: 4αPDD. Format: cell-based, ovine. How it is done:
(§1) Primary cultures of ovine pulmonary arterial endothelial cells (PAEC) were isolated as described previously (L. K. Kelly, Am J Physiol Lung Cell Mol Physiol, 286(5), L984-91 (2004)). Briefly, cells were maintained in Dulbecco's modified Eagle medium (DMEM) supplemented with 10% fetal calf serum (Hyclone, Logan, UT), antibiotics/antimycotic (500 IU Penicillin, 500 μg/ml Streptomycin, 1.25 μg/ml Amphotericin B; MediaTech, Herndon, VA) at 37° C. in a humidified atmosphere with 5% CO2 and 95% air. Cells were used for experiments between passages 9-14, seeded at ˜50% confluence, and utilized when fully confluent.
The XF24 Analyzer (Seahorse Biosciences) and XF CELL MITO STRESS™ Test Kit (#101706-100; Seahorse Biosciences) were used for the mitochondrial bioenergetic analyses. The optimum number of cells/well was determined to be 75,000/0.32 cm^2. At the end of each study, the XF24 culture microplates were incubated in a CO2-free XF prep station at 37° C. for 45 min to allow temperature and pH calibration. Subsequently, each well was sequentially injected Oligomycin (1 μM final concentration), carbonyl cyanide 4-(trifluoromethoxy) phenylhydrazone (FCCP, 1 μM final concentration), and Rotenone+antimycin A (1 μM final concentration of each) and measured the oxygen consumption rate (OCR). These agents were used to determine basal mitochondrial respiration, reserve respiratory capacity and maximal respiratory capacity measurements in pmols/min of oxygen consumed.

Another experiment relates to PKC. Description: PKC activity, dot-blot of PKC-phosphorylated proteins. Conditions: PAEC; 4αPDD 10 μM, 2, 4 and 6 hours. Format: cell-based, ovine. As for the experimental part: as §1
Activation of PKC in control and 4αPDD-treated EC was evaluated using dot-blot method and antibodies specific to PKC-phosphorylated proteins. The cell lysates were transferred on nitrocellulose membrane using Bio-Dot Microfiltration apparatus (Bio-Rad) according to Instruction Manual. To detect and evaluate levels of PKC-phosphorylated proteins, Phospho-(Ser) PKC Substrate rabbit polyclonal antibody (Cell Signaling) was used. After visualization of PKC-phosphorylated proteins, the membrane was stripped and re-probed with β-actin antibody for normalization.

The subject of a further experiment is mouse model of VILI. Description: Mouse model of VILI (high tidal volume ventilation). Format: in vivo. The note with it: 10 mg/kg intraperitoneally 3 h before ventilation; tidal volume 35 mL/kg, 4 h. As for the experimental part:
Male C57BL/6 mice aged between 6 and 8 weeks were purchased from Jackson Laboratories (ME, USA). Mice were maintained at a room temperature of 22±1° C. in air with 40-70% humidity at least one week before experiments. Animals were randomly distributed into 4 groups (n=5 in each group): non-ventilated control mice with normal saline; non-ventilated control mice treated with the eNOS decoy peptide (d-peptide); high tidal volume with normal saline; high tidal volume with eNOS decoy peptide. Three hours before ventilation, saline or the eNOS decoy peptide (10 mg/kg body weight) were injected intraperitoneally. Before mechanical ventilation was initiated, mice were anesthetized using an intraperitoneal injection with a cocktail containing ketamine (100 mg/kg) and xylazine (5 mg/kg). The mice were then placed in a supine position on a heating pad to maintain body temperature. For the ventilation procedure, mice were orotracheally intubated with a 20 g intravenous indwelling catheter and attached to a small animal ventilator (SAR-1000, CWE Inc., USA). The ventilation parameters were set as follows: inspiration/expiration ratio, 33%; respiratory rate, 75 breaths/min; and tidal volume, 35 mL/kg (high tidal volume group). During mechanical ventilation, mice were maintained in deep anesthesia by injecting with ketamine (100 mg/kg) every 45 minutes for the duration of the 4 h study. Mice in the non-ventilated control group were allowed to spontaneously breathe. […] The pellets were then resuspended in 500 μl of PBS and the cell numbers present were determined using an automated cell counter. The BAL fluid was centrifuged again at 15,000× g at 4° C. for 15 min and the supernatant collected and stored at −80° C. until the protein concentration was measured. […]
Protein extracts were prepared using lysis buffer (50 mM Tris-HCl, pH 7.6, 0.5% Triton X-100, 20% glycerol) containing HALT™ protease inhibitor cocktail (Pierce Laboratories, Rockford, IL). […] Bands were quantified using LI-COR Image Station software. […]

On to `CCCCCCCCCC(=O)O[C@@H]1[C@@H](C)[C@@]2(O)[C@@H](C=C(CO)C[C@@]3(O)C(=O)C(C)=C[C@@H]23)[C@@H]2C(C)(C)[C@]12OC(=O)CCCCCCCCC` [4αPDD, 4α-Phorbol-12,13 didecanoate], for which, in the experiment on PAEC, the maximum respiratory capacity result is listed as “reductions”, the “mitochondrial basal O2 consumption” value is reported as “reductions” and the spare respiratory capacity entry is recorded as “reductions”. Further, in the experiment with PKC, the PKC activity result is listed as “increases PKC activity”.

For the compound HRKKRRQRRITRKKTFKEVA [d-peptide], in the experiment with mouse model of VILI, the BALF cell number result is on record as “decreases in the cell number”, the BALF protein levels entry is given as “decreases” and the “increase in pT495-eNOS induced by mechanical ventilation of the mouse lung” value is “attenuated the increase in pT495-eNOS induced by mechanical ventilation”.

For the origin of these results see patent publication US20240002437A1, “COMPOSITIONS AND METHODS OF TREATING INFLAMMATORY LUNG DISEASES” (priority 2020, published 2024).
